The results in this text go back to US7576113B2, “Use of (E)-5-(4-chlorbenzyliden)-2,2-dimethyl-1-(1H-1,2,4-triazol-1-ylmethyl) cyclopentanol for combating rust attacks on soya plants” (BASF Aktiengesellschaft, priority 2004, dated 2009).

Type in all cases: in vivo
For assay [1], the system named is Phakopsora pachyrhizi. Kind of assay: Protective activity against soybean rust via seed treatment, field experiment in Brazil. The settings on record: cultivar IAC 8.2, 60 DAT, untreated 40. Here is the method: A defined amound of a commercial ready-to-used formulation of Triticonazole (suspension concentrate, concentration of active ingredient 200 g/l), corresponding to the desired application (a.r.) rate of 5, 15, 30 und 50 g ai/100 kg soybean was diluted with water to a total volume of 1 Ltr./100 kg Soybean.
Soybean seeds of the cultivar “IAC 8.2” were treated in a commercial device for dressing seeds with the thus prepared aqueous suspension of triticonazole and then seeded in a field experiment in Brazil. The leaves of the soybean plants thus grown were inoculated at an appropriate growing stage with a spore suspension of soybean rust (Phakopsora pachyrhizi). Thereafter the plants were kept wet for 6-8 h overnight by means of a finely dripping sprinkling device. During this time the spores germinated and their germ tubes penetrated into the leaf tissue. 60 days after treatment (60 DAT) or seeding, respectively, the extent of rust formation on the leaves of the infected plants was determinated.

Assay [2] relates to Phakopsora pachyrhizi. Kind of assay: Protective treatment of soybean plants, field experiments. Here is the method:
In field experiments, different varieties of soybean plants were treated with an aqueous triticonazole preparation. The application rates amounted to 20 to 200 g/ha. Thereafter, the plants were inoculated with Phakopsora pachyrhizi. 25 days after the treatment, the disease level on the untreated, but infested, leaves had developed to such an extent that it covered 50% of the leaf area. In the treated plants, in contrast, Phakopsora pachyrhizi disease had only reached a maximum of 25%.

For assay [3], the system named is Phakopsora pachyrhizi. Description: Curative treatment of diseased soybean plants, field experiments. Here is the method: In field experiments, different varieties of soybean plants whose leaves were already infested with Phakopsora pachyrhizi were treated with an aqueous triticonazole preparation using equipment conventionally used under practice conditions. The application rates were from 20 to 200 g/ha. 25 days after the treatment, the disease level on the untreated, but infested, leaves had developed to such an extent that it covered 50% of the leaf area. In the treated plants, in contrast, Phakopsora pachyrhizi disease had only reached a maximum of 25%.

The test system of assay [4] is Phakopsora pachyrhizi. Kind of assay: Seed treatment of soybean c.v. Embrapa 48, rust disease of leaf areas. As to conditions: seed treatment 12.5, 25, 50, 100 and 250 g per 100 kg of seed, all cases, after 50 days; untreated at least 50%. As for the experimental part:
Seed of soybean plants c.v. “Embrapa 48” were treated with a composition suitable for seed treatment, comprising triticonazole as active substance, at application rates in the range of from 12.5 g, 25 g, 50 g, 100 g and 250 g of triticonazole per 100 kg of seed. Thereafter, the seed was sown. The soybean plants thus grown were then inoculated with Phakopsora pachyrhizi. After 50 days, the level of rust disease of the leaf areas was determined. The disease level in the plants from untreated seed was at least 50%, whereas the disease level of the leaf area in plants from treated seed was less than 25% in all cases.

Assay [5] deals with Phakopsora pachyrhizi. Kind of assay: Curative activity against soybean rust via spray application, potted seedlings in greenhouse. The settings on record: 3 days after inoculation, cultivar Hutcheson, untreated 80. As for the experimental part:
A commercial ready-to-used formulation of Triticonazole (suspension concentrate, concentration of active ingredient 200 g/l) was diluted with water to the active ingredient concentraten (act.conc.) given in Table 2.
Leaves of potted soybean seedlings of the cultivar “Hutcheson” were inoculated with a suspension of spores of soybean rust (Phakopsora pachyrhizi). The pots were placed in a chamber with high atmospheric humidity (90 to 95%) at 22 to 24° C. for 24 hours. During this time, the spores germinated and the germ tubes penetrated into the leaf tissue. After 3 days, the infected plants were sprayed to runoff point with an aqueous suspension having the concentration of active compound as given in table 2. The suspensions or emulsions were prepared as described above. After the spray coating was dry, the test plants were cultivated in a greenhouse at temperatures between 22 and 24° C. and at 90% relative humidity for 17 days. The extent of the rust development on the leaves was then determined.

Structures are written as SMILES. Some results are limits rather than exact numbers.

As to `CC1(C)CC/C(=C\c2ccc(Cl)cc2)C1(O)Cn1cncn1` (centres unmarked) [triticonazole, (E)-5-(4-chlorobenzylidene)-2,2-dimethyl-1-(1H-1,2,4-triazol-1-ylmethyl)cyclopentanol], the “% infected leaf area (60 DAT)” value amounted to 23% with Phakopsora pachyrhizi [1] (seed treatment a.r. 5 g/100 kg), 11% in the assay with Phakopsora pachyrhizi [1] (seed treatment a.r. 15 g/100 kg), 9% in the assay with Phakopsora pachyrhizi [1] (seed treatment a.r. 30 g/100 kg) and 3% in the assay on Phakopsora pachyrhizi [1] (seed treatment a.r. 50 g/100 kg). Also, the “yield in comparison with the untreated control” value is “markedly improved” in the assay on Phakopsora pachyrhizi [2] (20 to 200 g/ha, field) and “markedly improved” in the assay with Phakopsora pachyrhizi [3] (20 to 200 g/ha, field). Moreover, the “Phakopsora pachyrhizi disease level (leaf area covered)” value with Phakopsora pachyrhizi [2] (aqueous preparation 20 to 200 g/ha, inoculated after treatment, 25 days after treatment, untreated 50%) is on record as no more than 25%; in the assay on Phakopsora pachyrhizi [3] (aqueous preparation 20 to 200 g/ha, 25 days after treatment, different soybean varieties, untreated 50%), no more than 25%. The “disease level of the leaf area” value in the assay with Phakopsora pachyrhizi [4] is “less than 25%”. In addition, the entries for the “% infected leaf area (17 DAT)” value in the assay on Phakopsora pachyrhizi [5] (spray act. conc. 1 ppm) and in the assay on Phakopsora pachyrhizi [5] (spray act. conc. 4 ppm) were 9% and 1%, respectively.
